Measurements published in PMC5745808 (Biochemistry, 2016).
Like-named read-outs stand apart in the source and are kept apart here. Peptide text beside a SMILES is read from it. * marks the point of attachment. Cbz = O=C(OCc1ccccc1)*

Assays:
Mtb20SOG [1] = biological target: T1, Mtb20SOG (Mycobacterium tuberculosis, UniProt P9WHT9); settings: ref [20], cited from earlier work
i-20S β5i = i-20S β5i (Homo sapiens, UniProt P20618+P28062); settings: ref [20], cited from earlier work
M. tuberculosis = settings: under nitrosative stress; ref [20]; cited from earlier work
c-20S β5c = c-20S β5c (Homo sapiens, UniProt P20618+P28074); settings: ref [20], cited from earlier work
Mtb20SOG [2] = biological target: T1, Mtb20SOG; assay: biochemical

T1 sequence (P9WHT9 58-291): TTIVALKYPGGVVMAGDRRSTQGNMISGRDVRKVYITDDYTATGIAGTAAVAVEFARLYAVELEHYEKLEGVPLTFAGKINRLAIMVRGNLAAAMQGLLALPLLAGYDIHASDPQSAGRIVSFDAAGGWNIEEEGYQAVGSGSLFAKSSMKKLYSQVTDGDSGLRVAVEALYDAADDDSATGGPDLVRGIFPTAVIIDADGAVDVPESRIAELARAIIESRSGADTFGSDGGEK
T1 sequence (P9WHU1 9-248 partner): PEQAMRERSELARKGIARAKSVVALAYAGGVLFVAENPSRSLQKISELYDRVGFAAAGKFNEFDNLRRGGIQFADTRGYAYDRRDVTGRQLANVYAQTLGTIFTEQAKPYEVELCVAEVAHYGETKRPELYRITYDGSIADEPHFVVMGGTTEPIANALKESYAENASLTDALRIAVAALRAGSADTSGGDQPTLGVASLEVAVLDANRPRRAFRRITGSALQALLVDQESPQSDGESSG

Compound | more potent against Mtb20SOG than DPLG-4 (Mtb20SOG [1]; DPLG-4 has a 4-isopropyl phenyl P1 group) [fold] | more potent against Mtb20SOG than ML9 (Mtb20SOG [1]; ML9 has a 2,4-difluorobenzyl P1 group) [fold] | IC50 (Mtb20SOG [1]; read-out: IC50 Mtb20SOG (LLVY), suc-LLVY-AMC) [µM] | SIapp IC50β5i/IC50Mtb20SOG (i-20S β5i; apparent selectivity index) | IC50 (i-20S β5i; read-out: IC50 i-20S β5i (ANW), Ac-ANW-AMC) [µM] | affinity for Mtb 20S stronger than for human i-20S (i-20S β5i) [fold] | bactericidal activity against nonreplicating bacteria (M. tuberculosis) | SIapp IC50β5c/IC50Mtb20SOG (c-20S β5c; apparent selectivity index) | IC50 (c-20S β5c; read-out: IC50 c-20S β5c (LLVY), suc-LLVY-AMC) [µM] | affinity for Mtb 20S stronger than for human c-20S (c-20S β5c) [fold] | IC50 (Mtb20SOG [2]) [µM]
CCN(CC)C(=O)C[C@H](NC(=O)CCc1ccccc1)C(=O)N[C@@H](Cc1ccc(F)cc1)C(=O)NCc1cccc2ccccc12 [DPLG-2] | 51 | 4 | 0.015 | 3647 | 54.7 | 3647 | bactericidal activity | 4667 | 70 | 4667 | 
CC(C)C[C@@H](C=O)NC(=O)[C@H](CC(C)C)NC(=O)[C@H](CC(C)C)NC(=O)OCc1ccccc1 [MG-132] (Cbz-Leu-Leu-Leu-aldehyde) |  |  |  |  |  |  |  |  |  |  | 1.71 ± 0.079
